According to patent US8735071B2, “Compositions for promoting epigenetic DNA demethylation and methods of use therefore” (The Johns Hopkins University, priority 2008, dated 2014):

What was measured:
[1] = test system: Gadd45b expression; experiment: Gadd45b expression in cultured primary hippocampal neurons by Q-PCR; assay type: cell-based, mice; details: for Gadd45b expression: agent alone, K^+ 50 mM, APV 200 μM, bicuculline 50 μM, FIG. 5A, 5C; for K^+-induced Gadd45b expression: pretreated 0.5 hr, then K^+ (50 mM) for 1 hr, BAPTA 50 μM, Nimodipin 10 μM, KN93 or KN92 10 μM, FIG. 5B
Text: (§1) Dentate gyrus tissue was rapidly micro-dissected from adult WT mice, or with ECT, spatial exploration or running. […] For gene expression analysis, total RNA fraction was immediately isolated after dissection (Qiagen), treated with DNAase and reverse-transcribed into the first-strand cDNA (Invitrogen). Specific primers (listed in Table 1) were used in SYBR-green based quantitative real-time PCR to measure the expression level of target genes with the ΔΔT method (ABI). Most primers were designed to span introns to further prevent genomic DNA amplification during the PCR reaction.
Primary hippocampal neurons were prepared from hippocampi of P0 mice and plated on poly-lysine coated coverslips in Neurobasal-A medium supplemented with B27 (Invitrogen) as previously described (H. Song, C. F. Stevens, F. H. Gage, Nature 417, 39 (2002)). AraC (5 μM) was added to eliminate proliferating cells. One-week old culture was used for all experiments. For pharmacological experiments, cultures were pretreated with the following inhibitors 30 minutes before stimulation with K^+ (50 mM) or glutamate (20 μM) for 1 hr: BAPTA (50 μM), Nimodipin (10 μM), APV (200 μM), bicuculline (50 μM), KN92 or KN93 (10

[2] = test system: adult neural progenitors; experiment: Proliferation of adult hippocampal neural progenitors in culture; assay type: cell-based, rat; details: FGF-1 0, 2, 5, 10 and 20 ng/ml versus FGF-2 20 ng/ml; cell number at 4 days in vitro; FIG. 23
Procedure: Established neural progenitors from adult rat hippocampus were cultured as monolayer as previously described (H. Song, C. F. Stevens, F. H. Gage, Nature 417, 39 (2002).). They were maintained on laminin and polyornithine-coated dishes in DMEM/F12 medium containing N2 supplement, L-glutamine (2 mM) and FGF-2 (20 ng/ml). Cultures were passaged for expansion when reaching 70% confluence. For FGF-1 experiments, early-passage, monolayer adherent cultures were plated at the clonal density in the presence of various concentration of FGF-1 or FGF-2 (PeproTech). At 4 days in vitro, cultures were fixed and cell numbers from each condition were determined by counting from randomly selected fields of 4 different biological replicates.

[3] = test system: Arc; details: CPP 10 mg/kg i.p. at 1 hr before ECT; 1 hr after ECT; FIG. 2E
Procedure: (§2) Electroconvulsive treatment (ECT) was administered with pulses consisted of 1.0 s, 100 Hz, 18 mA stimulus of 0.3 ms delivered using the Ugo Basile ECT unit (Model 57800) as previously described (A. J. Cole, Neurochem 55, 1920 (1990)). […] S ham animals were similarly handled in parallel without the current delivery. In some experiments, ±3-(2-carboxypiperazin-4-yl)-propyl-1-phosphonic acid (CPP, 10 mg/kg body weight, i.p.), was injected at 1 hr before ECT. Potential damaging responses after ECT was examined by Western blot and immunostaining of the activated form of caspase (Caspase 3-a; Rabbit; 1:500; Cell Signaling) and phospho-ATM (Ataxia telangiectasia mutated kinase; mouse; Millipore) (3).
as §1

[4] = test system: Gadd45b; details: CPP 10 mg/kg i.p. at 1 hr before ECT; 1 hr after ECT; FIG. 2E
Procedure: as §2, §1

Molecule	Gadd45b expression ([1]; glutamate 20 μM)	K^+-induced Gadd45b expression [1]	also measured
N[C@@H](CCC(=O)O)C(=O)O [glutamate]	induced		
COc1ccc(S(=O)(=O)N(CCO)c2ccccc2CN(C)C/C=C/c2ccc(Cl)cc2)cc1 [KN93]		abolished	
O=C(O)CN(CC(=O)O)c1ccccc1OCCOc1ccccc1N(CC(=O)O)CC(=O)O [BAPTA]		abolished	
COCCOC(=O)C1=C(C)NC(C)=C(C(=O)OC(C)C)C1c1cccc([N+](=O)[O-])c1 (centres unmarked) [Nimodipin]		abolished	
COc1ccc(S(=O)(=O)Nc2ccccc2CN(C)C/C=C/c2ccc(Cl)cc2)cc1 [KN92]		not	
[Cl-].[K+] [K^+]	significant increase		
N[C@@H](CCCP(=O)(O)O)C(=O)O [APV]	significantly decreased		glutamate-induced Gadd45b expression ([1]; APV 200 μM pre-treatment, glutamate 20 μM, FIG. 5C): blocked
FGF-1: fibroblast growth factor-1 (PeproTech)			mitogenic activity on neural progenitor proliferation in vitro [2]: robust mitogenic activity
O=C(O)C1CN(CCCP(=O)(O)O)CCN1 (racemic) [CPP, ±3-(2-carboxypiperazin-4-yl)-propyl-1-phosphonic acid]			ECT-induced Arc expression [3]: abolished; ECT-induced Gadd45b expression [4]: abolished
